Laboratory results taken from patent US10849983B2, “Development of soluble albuminated curcumin for application in cancer therapy” (Sree Chitra Tirunal Institute for Medical Sciences and …, priority 2013, dated 2020).

Legend:
lung cancer (A549) cells = test: A549 lung cancer cells, phase contrast microscopy, cell cycle analysis and apoptosis by flow cytometry; format: cell-based, human; conditions: 48h, Flowjo
Experimental: (§1) To study the effect of the drug conjugate on cancer cells, Lung (A549), Leukemia (K562), & Prostate (PC-3) cell lines were procured from NCCS, Pune. On receipt, the cell lines were sub cultured and sufficient numbers of vials were stored in […]. deep freezer. To study the effect of curcumin on angiogenesis, primary endothelial cells isolated from sheep was used. The effects on primary human fibroblast cells were also studied. Each cell line was maintained in their respective recommended media. A549, PC3 and fibroblast cells were maintained in DMEM media with 10% FBS. K562 cells were maintained in IMDM media supplemented with 10% FBS and endothelial cells in MCDB media with 10% FBS, L-ascorbic acid, VEGF and L-Glutamine.
(§2) The effect of curcumin was analyzed on cell apoptosis and cycle arrest. Different concentrations of the alb-cur conjugate were added into the cultures. The concentrations employed were 250 μM, 500 μM, and 1000 μM which were achieved by adding stock prepared by dissolving lyophilized curcumin-albumin conjugate.
(§3) The efficacy of the loaded drug was analyzed using solid tumor cell lines of prostate cancer (PC-3) [FIGS. 4 & 5] lung cancer (A549) [FIGS. 6 & 7B] and suspension cell line of leukemia (K562) [FIGS. 7A & 8]. The toxicity of the conjugated albumin-curcumin complex was assed by Live/Dead assay using Annexin V in primary fibroblasts. […]

[1] = tested on: prostate cancer (PC-3) cells; test: PC-3 cells, phase contrast microscopy and Live/Dead (Annexin V) assay; format: cell-based, human; conditions: 24h, phase contrast microscopy, curcumin in DMSO
Experimental: as §1, §2, §3

| Structure (SMILES) | cell cycle distribution of A549 cells (positive control) (lung cancer (A549) cells) | morphology of PC-3 cells [1] |
| --- | --- | --- |
| O=c1[nH]cc(F)c(=O)[nH]1 [Example 5-FU] | slight increase in the population of cells in the S phase |  |
| COc1cc(/C=C/C(=O)CC(=O)/C=C/c2ccc(O)c(OC)c2)ccc1O [cur/DMSO, curcumin] |  | normal morphological features |
